Assay results reported in US20130197073A1, “HYPOCHOLESTEROLEMIC, ANTI-INFLAMMATORY AND ANTIEPILEPTIC NEUROPROTECTIVE COMPOUND” (NEURON BIOPHARMA, S.A., priority 2010, published 2013).

How the values were obtained:
caspase 3/7 = assay: Inhibition of activation of caspase 3/7 in camptothecin cell model of apoptosis; assay type: cell-based, human; conditions: 50 μM, positive control; 50 μM CPT 6 hours
Protocol: (§1) The assay was performed on human neuroblastoma SK-N-MC cells in culture, maintained as described in section 2.1.
The induction of apoptosis on the cells in culture was performed with camptothecin (CPT), which triggers the activation of cell apoptosis. Apoptosis was quantified by means of the measurement of the activation of effector caspases, caspase 3 or caspase 7, for which a kit for the fluorometric detection of active caspase 3/7 (Apo-ONE® Homogeneous Caspase-3/7, Promega) was used. Active caspases 3 or 7 of the cells cause the rupture of a substrate, which leads to fluorescence emission, which is read by means of a fluorometer. The effect of the pretreatment of compound NST0060 at 10 and 40 μM on the activation of caspase 3/7 produced by 50 μM of camptothecin (CPT) in the SK-N-MC cells was thus analyzed. These cells, not exceeding 15 passages, were seeded on 96-well plates treated for adherent cells with a cell concentration of 5×10^4 cells/well; 3 wells of the plate were seeded for each assay condition.
After 24 hours of cell incubation (at 37° C. and 5% CO2), the pretreatment with NST0060 at 10 and 40 μM was performed.
The cells were incubated (at 37° C. and 5% CO2) with these treatments for 6 hours, after which cell lysis buffer and the caspase substrate at the concentrations specified by the manufacturer were added; it was incubated at room temperature for 30 minutes and then frozen at −20° C. overnight. Fluorescence was measured the next day (499/521 nm, Exci/Emi).

[1] = system: human neuroblastoma SK-N-MC cells; assay: Inhibition of DNA fragmentation (sub-G1, flow cytometry) in camptothecin cell model of apoptosis; assay type: cell-based; conditions: 50 μM, positive control; 50 μM CPT
Protocol: as §1
The inhibition caused by compound NST0060 with respect to apoptosis caused by treatment with camptothecin (CPT), which inhibits the topoisomerase I enzyme, prevents DNA duplication and triggers apoptotic cell death. These cells, not exceeding 15 passages, were seeded on 6-well plates treated for adherent cells with a cell concentration of 7×10^5 cells/well; 2 wells of the plate were seeded for each assay condition.
After 24 hours of cell incubation (at 37° C. and 5% CO2), cell pretreatment was performed with 10 and 40 μM of NST0060 for 24 hours; they were subsequently treated with 50 μM CPT for 6 hours. Furthermore, Z-VAD-fmk at 50 μM was used as positive control for inhibition.
After treatment, the cells were collected along with their culture medium and centrifuged at 300×g for 5 minutes. The medium was removed, a washing was performed with PBS and the cells were fixed for 2 minutes with 500 μl of 70% ethanol at −20° C. […] After this time they were analyzed by flow cytometry, comparing the fluorescence of propidium iodide with respect to the amount of DNA. The percentage of apoptosis was measured on the sub-G1 region of each of the conditions.

[2] = system: zebrafish (Danio rerio, AB strain) embryos; assay: Zebrafish embryo acute toxicity, mortality (OECD C.15); assay type: in vivo; conditions: for Mortality (dead larvae with respect to the total): 3 days
Protocol: 30 control animals treated with dilution water and with daily replacement until the end of the assay.
30 animals treated with compound NST0060 (3 embryos for every ten replicates) diluted in dilution water at doses between 1 and 100 mg/Kg and with daily replacement of the substance during the days that the assay lasted.
After the time of exposure to the substances under study, the mortality record of the larvae was determined, results being shown in Table 2.

[3] = system: zebrafish (Danio rerio, AB strain) embryos; assay: Zebrafish embryo cardiotoxicity, heart rate; conditions: 72 hpt
[4] = system: zebrafish (Danio rerio, AB strain) embryos; assay: Zebrafish embryo acute toxicity, percentage of healthy larvae; conditions: mean±SD

| Molecule | inhibition of the activation of caspase 3/7 (caspase 3/7) | inhibition of apoptosis (DNA fragmentation) caused by CPT [1] | Mortality (dead larvae with respect to the total) ([2]; Dose 1 mg/kg) | Mortality (dead larvae with respect to the total) ([2]; Dose 3 mg/kg) | Mortality (dead larvae with respect to the total) ([2]; Dose 10 mg/kg) | Mortality (dead larvae with respect to the total) ([2]; Dose 30 mg/kg) | Mortality (dead larvae with respect to the total) ([2]; Dose 100 mg/kg) | deaths out of 30 animals ([2]; dose of 10 mg/Kg, 72 h) | heart rate with respect to the controls ([3]; dose of 3 mg/Kg) | heart rate with respect to the controls ([3]; dose of 10 mg/Kg) | percentage of healthy larvae ([4]; dose of 1 mg/Kg) [%] | percentage of healthy larvae ([4]; dose of 3 mg/Kg) [%] |
| --- | --- | --- | --- | --- | --- | --- | --- | --- | --- | --- | --- | --- |
| Z-VAD-fmk [reference compound] | completely inhibited | specifically inhibited apoptosis caused by CPT |  |  |  |  |  |  |  |  |  |  |
| CCC(C)(C)C(=O)O[C@H]1C[C@@H](C)C=C2C=C[C@H](C)[C@H](CC[C@@H]3C[C@@H](O)CC(=O)O3)[C@H]21 [simvastatin, reference compound] |  |  | 0/30 | 0/30 | 16/30 | 30/30 | 30/30 | 16 | significant decrease of the heart rate | significant decrease of the heart rate | 50.0±22.4 | 50.0±22.4 |
